This note sets out measurements from patent US5095006A, “Renin inhibitors having all retro-inverted peptide bonds” (Bayer Aktiengesellschaft, priority 1989, dated 1992).

Structures are written as SMILES.

For the test, the target named is T1, endogenous renin from human plasma (Homo sapiens, UniProt P00797).
T1 construct: rate of formation of angiotensin I from endogenous angiotensinogen and renin; from tissue; host or cells: pooled human plasma (EDTA)
T1 sequence (P00797 67-406): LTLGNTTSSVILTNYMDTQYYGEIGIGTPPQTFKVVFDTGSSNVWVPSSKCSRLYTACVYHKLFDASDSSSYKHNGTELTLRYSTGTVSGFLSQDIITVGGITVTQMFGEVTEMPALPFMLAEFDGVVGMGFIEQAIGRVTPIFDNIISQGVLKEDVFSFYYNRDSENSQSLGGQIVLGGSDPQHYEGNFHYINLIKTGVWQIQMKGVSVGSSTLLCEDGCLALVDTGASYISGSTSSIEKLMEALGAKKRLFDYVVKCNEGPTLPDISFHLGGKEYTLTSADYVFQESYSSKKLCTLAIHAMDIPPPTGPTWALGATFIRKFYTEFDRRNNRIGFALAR
In words: In vitro test: inhibition of plasma renin activity (angiotensin I formation, radioimmunoassay). Format: biochemical. Particulars: pooled human plasma, 37° C., pH 5.6. As to the method:
The plasma renin activity (PRA) is determined by incubation at 37° C. as the rate of formation of angiotensin I from endogenous angiotensinogen and renin. […] The angiotensin I formed per unit of time is determined by radioimmunoassay (Sorin Biomedica, Italy).
The percentage inhibition of the plasma renin activity is calculated by comparison […].

In the case of `CC(C)(C)OC(=O)N(Cc1ccccc1)C[C@H](O)[C@@H](Cc1ccccc1)C(=O)N[C@H](Cc1c[nH]cn1)C(=O)N[C@H](Cc1ccccc1)C(=O)N1CCOCC1` [Example 77, 4-(N-tert.-Butoxycarbonyl-N-benzyl)amino-2-R,S-benzyl-3-R,S-hydroxybutyryl-D-histidyl-D-phenylalanine-(N-morpholino)amide], the Inhibition (usually the change of the read-out against control, counted positive when it falls) at 0.05 mg/ml [%] is reported as 100%. The figure for `O=C(N[C@H](Cc1cnc[nH]1)C(=O)N[C@H](Cc1ccccc1)C(=O)OCc1ccccc1)C(Cc1ccccc1)C(O)CN1C(=O)c2ccccc2C1=O` (stereo partly drawn) [Example 70, 4-(N-Phthalyl)amino-2-R,S-benzyl-3R,S-hydroxybutyryl-D-histidyl-D-phenylalanine benzyl ester] is 100%. Consider `O=C(NC1CCCC1)[C@@H](Cc1ccccc1)NC(=O)[C@@H](Cc1c[nH]cn1)NC(=O)[C@H](Cc1ccccc1)[C@@H](O)CN1C(=O)c2ccccc2C1=O` [Example 72, 4-(N-Phthalyl)amino-2-R,S-benzyl-3R,S-hydroxybutyryl-D-histidyl-D-phenylalanine(cyclopentyl)amide], for which the “Inhibition at 0.05 mg/ml [%]” value worked out at 100%. With `O=C(O)[C@@H](Cc1ccccc1)NC(=O)[C@@H](Cc1c[nH]cn1)NC(=O)[C@H](Cc1ccccc1)[C@@H](O)CN1C(=O)c2ccccc2C1=O` [Example 71, 4-(N-Phthalyl)amino-2-R,S-benzyl-3R,S-hydroxybutyryl-D-histidyl-D-phenylalanine], the “Inhibition at 0.05 mg/ml [%]” value was determined as 92%. `COC(=O)[C@@H](Cc1ccccc1)NC(=O)[C@@H](Cc1cnc[nH]1)NC(=O)C(Cc1ccccc1)C(O)CN(Cc1ccccc1)C(=O)Cc1cccnc1` (stereo partly drawn) [Example 103, 4-[N-Benzyl-N-(3-pyridyl)acetyl]amino-2-R,S-benzyl-3-R,S-hydroxybutyryl-D-histidyl-D-phenylalanine methyl ester]: the “Inhibition at 0.05 mg/ml [%]” value is recorded as 88%. With `CC(C)CNC(=O)[C@@H](Cc1ccccc1)NC(=O)[C@@H](Cc1cnc[nH]1)NC(=O)C(Cc1ccccc1)C(O)CNC(=O)c1ccccc1C(=O)O` (stereo partly drawn) [Example 90, 4-[N-(2-Carboxy)benzoyl]amino-2-R,S-benzyl-3-R,S-hydroxybutyryl-D-histidyl-D-phenylalanine-(2-methyl) propylamide], the “Inhibition at 0.05 mg/ml [%]” value was 63%. As to `CC(C)(C)OC(=O)N(Cc1ccccc1)CC(O)C(Cc1ccccc1)C(=O)N[C@H](Cc1c[nH]cn1)C(=O)O` (stereo partly drawn) [Example 74, 4-(N-tert.-Butoxycarbonyl-N-benzyl)amino-2-R,S-benzyl-3-R,S-hydroxybutyryl-D-histidine], the “Inhibition at 0.05 mg/ml [%]” value amounted to 93%. With `CC(C)CNC(=O)[C@@H](Cc1ccccc1)NC(=O)[C@@H](Cc1c[nH]cn1)NC(=O)[C@H](Cc1ccccc1)[C@@H](O)CNC(=O)OC(C)(C)C` [Example 78, (N-tert.-Butoxycarbonyl)amino-2-R,S-benzyl-3-R,S-hydroxybutyryl-D-histidyl-D-phenylalanine-(2-methylpropyl)amide] the figure was 100%; with `CC(C)(C)OC(=O)N(Cc1ccccc1)CC(O)C(Cc1ccccc1)C(=O)N[C@H](Cc1cnc[nH]1)C(=O)N[C@H](Cc1ccccc1)C(=O)O` (stereo partly drawn) [Example 76, 4-(N-tert.-Butoxycarbonyl-N-benzyl)amino-2-R,S-benzyl-3-R,S-hydroxybutyryl-D-histidyl-D-phenylalanine], 78%.
